Key:
[1] = system: Luciferase-MC38 cells; assay: Mouse CRC liver metastasis model by intra-splenic injection, reparixin alone (Example 4); assay type: in vivo, C57BL/6 mice; conditions: for liver weight / liver/body weight ratio: reparixin 30 mg/kg intraperitoneally every other day, day 12
Experimental: Experimental methods: Luciferase-MC38 cells were intrasplenically injected into C57BL/6 mice complicated by NAFLD or uncomplicated by NAFLD. Subsequently, reparixin (MCE, 30 mg/kg) or PBS was intraperitoneally injected every other day. On day 6 after tumor inoculation, the extent of liver metastasis was observed by imaging using an In vivo Imaging System (IVIS, PerkinElmer, Hopkinton, MA, USA). On day 12 after tumor inoculation, the mice were sacrificed under isoflurane anesthesia and soaked in alcohol for 30 min. Livers from each group of mice were prepared into single-cell suspensions, which were subjected to blocking, staining, incubation, and subsequent detection on the machine.
(§1) Experimental grouping: The experimental groups were injected with reparixin, and the control group was injected with PBS.
(A) Experimental treatment protocol: After Luciferase-MC38 cells were inoculated, PBS or reparixin was injected on days 3, 5, 7, 9, and 11, respectively, and the mice were sacrificed on day 12. (B) In vivo bioluminescence imaging of each group (CRLM group, CRLM + reparixin group, NAFLD + CRLM group, NAFLD + CRLM + reparixin group) on day 6 after tumor inoculation. (C) Representative gross anatomical views of livers of each group of mice (samples collected on day 12 after treatment); yellow arrows represent tumors. (D) Liver weight of each group of mice; n = 5-6.

[2] = 5 mg/kg subcutaneously once daily for 3 consecutive weeks; cited from earlier work
[3] = system: IL-1β; conditions: after MCAo in mice; cited from earlier work
[4] = system: gastric cancer; conditions: treatment of gastric cancer; cited from earlier work
[5] = system: NAFLD; assay: Mouse NAFLD model induced by 60% high-fat feed, oil red staining and immunohistochemistry of liver (Example 6); assay type: in vivo; conditions: NAFLD mice, 30 mg/kg intraperitoneally once every 2 days
Experimental: Experimental methods: The "Western diet" (WD) was simulated with 60% high-fat feed, and the NAFLD model could be established within 12 weeks. After the establishment of the animal model, the mice were intraperitoneally injected once every 2 days at a dose of 30 mg/kg. Liver tissues of the mice were collected on days 12, 15, and 21 of administration, and oil red staining was performed on the liver tissues of each group.
as §1
(A) After NAFLD was established, raparixin was intraperitoneally injected once every two days; macroscopic views of representative liver tissues and oil red staining of liver sections in each group are shown, and the scale represents 50 µm. (B) Oil red staining positive area rate of NAFLD and 12-day treatment groups, n = 4. (C) Oil red staining positive area rate of NAFLD and 15-day treatment groups, n = 4. Statistical test: mean + SD, Student's t-test, * p < 0.05.
A: representative gross views of livers of mice in the NAFLD treatment group and untreated group, and oil red O staining and immunohistochemical staining on liver sections of the two groups of mice, with the scale bar being 100 µm; B-C: comparison of mean immunohistochemical staining densities of IL6 (B) and CXCR2 (C) in livers of NAFLD mice treated with reparixin for 21 days (mean ± SD, Student's t test).

## CC(C)Cc1ccc([C@@H](C)C(=O)NS(C)(=O)=O)cc1 [reparixin]
[1]; CRLM animal model
  liver weight: decreased significantly
  liver/body weight ratio: decreased significantly
[1]; NAFLD + CRLM animal model
  liver weight: decreased significantly
  liver/body weight ratio: decreased significantly
[1]; especially in mice complicated by NAFLD, 30 mg/kg intraperitoneally
  liver metastasis burden: can reduce the liver metastasis burden
[2]
  blood flow: increased
  systolic blood pressure: effectively reduced
[3]
  level of IL-1β in the brain: reduce
[4]
  overall survival (OS) rate: prolongs
  programmed death ligand 1 macrophages: reduction
[5]; IL6 and CXCR2 staining after 21 days
  inflammation: reduce inflammation
[5]; days 12, 15, 21
  hepatocellular steatosis: significantly ameliorated
  lipid vacuoles: reduced

Reference: patent EP4681707A1, “METHOD FOR TREATING DISEASES BY USING REPARIXIN ALONE OR IN COMBINATION WITH ANTI-PD-1 ANTIBODY” (Shandong Cancer Hospital Affiliated to Shandong First …, priority 2023, dated 2024)
